# From PMC6934184, “Selective DNA-PKcs inhibition extends the therapeutic index of localized radiotherapy and chemotherapy” (The Journal of Clinical Investigation, 2019)
# Target: T1, FGFR3 G697C (Homo sapiens, UniProt P22607, G697C)
# T1 construct: purchased Thermo Fisher Scientific (Life Technologies) SelectScreen
# Assay: SelectScreen LanthaScreen
# Assay type: binding
# Details: read-out: % displacement
# Method: The in vitro kinase selectivity of NU5455 was determined using the SelectScreen Broad Assay Panel (Thermo Fisher Scientific) involving activity and binding assays (Supplemental Table 1). […] Class IA PI3Ks were measured using the p85α subunit.
# Kinase [ATP] % Assay Kinase [ATP] % Assay Kinase [ATP] % Assay Kinase [ATP] % Assay
# DNA-PK Km app 98.3 Z LATS2 n/a 4.7 L KIT D820E n/a 1.3 L GSK3B (GSK3 beta) Km app -2.5 Z
# PIK3C3 (hVPS34) Km app 85.9 A PRKCZ (PKC zeta) Km app 4.7 Z GRK1 n/a 1.3 L BMPR2 n/a -2.5 L
# PIK3C2B (PI3K-C2 beta) 10 28.9 A FGFR1 Km app 4.7 Z BRSK2 n/a 1.2 L CDC42 BPB (MRCKB) Km app -2.5 Z
# SNF1LK2 Km app 26.6 Z MINK1 Km app 4.6 Z NUAK1 (ARK5) Km app 1.2 A AMPK (A2/B2/G2) n/a -2.6 L
# HCK Km app 18.0 Z CSF1R (FMS) Km app 4.3 Z CDK9/cyclin K n/a 1.0 L PRKG1 Km app -2.7 Z
# NEK2 Km app 17.8 Z CSNK1G3 (CK1 gamma 3) Km app 4.2 Z NUAK2 n/a 1.0 L KIT T670E n/a -2.8 L
# ALK Km app 17.3 Z STK32C (YANK3) n/a 4.2 L CDK2/cyclin O n/a 0.9 L ERBB4 (HER4) Km app -2.8 Z
# FGFR3 K650M n/a 16.5 L STK22D (TSSK1) Km app 4.2 Z CAMKK2 (CaMKK beta) n/a 0.9 L PLK4 n/a -2.8 L
# SIK3 n/a 16.1 L TAOK3 (JIK) n/a 4.2 L FGFR3 Km app 0.9 Z GRK7 Km app -3.0 Z
# LYN A Km app 15.2 Z RPS6KA4 (MSK2) Km app 4.2 Z ULK2 n/a 0.9 L MAPKAPK2 Km app -3.1 Z
# BMPR1B (ALK6) n/a 14.5 L PTK2B (FAK2) Km app 4.2 Z KIT D816V n/a 0.9 L FGFR4 Km app -3.1 Z
# INSRR (IRR) Km app 14.1 Z CLK2 Km app 4.1 Z CAMK1 (CaMK1) 10 0.8 A CASK n/a -3.1 L
# PLK2 Km app 14.1 Z STK24 (MST3) Km app 4.1 Z PTK6 (Brk) Km app 0.7 Z GRK5 Km app -3.2 Z
# PRKACA (PKA) Km app 14.0 Z CAMK1D (CaMKI delta) Km app 4.1 Z CAMK2B (CaMKII beta) Km app 0.7 Z EGFR (ErbB1) T790M Km app -3.3 Z
# EIF2AK2 (PKR) n/a 13.3 L INSR Km app 4.1 Z ACVR1 (ALK2) n/a 0.7 L PAK4 Km app -3.3 Z
# PRKX Km app 12.5 Z IRAK1 Km app 4.0 A ABL1 H396P n/a 0.6 L DAPK3 (ZIPK) Km app -3.4 Z
# FGR Km app 12.1 Z SRC N1 Km app 3.9 Z MERTK (cMER) A708S n/a 0.6 L RET M918T n/a -3.5 L
# CLK1 Km app 11.7 Z SRPK2 Km app 3.9 Z MAPKAPK5 (PRAK) Km app 0.6 Z PRKCQ (PKC theta) Km app -3.7 Z
# MARK3 Km app 11.4 Z RPS6KA6 (RSK4) Km app 3.8 Z AKT1 (PKB alpha) Km app 0.5 Z CAMKK1 (CAMKKA) n/a -3.8 L
# PDGFRB (PDGFR beta) Km app 11.0 Z GRK6 Km app 3.7 Z NTRK3 (TRKC) Km app 0.4 Z FLT3 D835Y Km app -3.9 Z
# PRKCN (PKD3) Km app 10.7 Z PKN1 (PRK1) Km app 3.6 Z ZAP70 Km app 0.3 Z ROCK2 Km app -4.1 Z
# STK16 (PKL12) n/a 10.5 L MAP3K8 (COT) 100 3.5 Z CSNK1A1 (CK1 alpha 1) Km app 0.3 Z CHUK (IKK alpha) Km app -4.2 A
# FES (FPS) Km app 10.4 Z FLT4 (VEGFR3) Km app 3.5 Z MYLK (MLCK) n/a 0.2 L AXL Km app -4.2 Z
# ABL1 Km app 10.4 Z GRK4 Km app 3.5 Z MKNK2 (MNK2) n/a 0.2 L PIM2 Km app -4.3 Z
# MUSK Km app 10.3 Z FRK (PTK5) Km app 3.4 Z AMPK (A1/B1/G3) n/a 0.2 L PAK1 Km app -4.4 Z
# MAPK1 (ERK2) Km app 10.1 Z FYN A n/a 3.3 L MAP3K2 (MEKK2) n/a 0.1 L BMPR1A (ALK3) n/a -4.4 L
# BRAF 100 9.9 Z CDK1/cyclin A2 n/a 3.3 L CDK8/cyclin C n/a 0.1 L STK4 (MST1) Km app -4.4 Z
# IGF1R Km app 9.7 Z KIT V559D T670I n/a 3.1 L MARK2 Km app 0.1 Z PRKCH (PKC eta) Km app -4.6 Z
# MAPK14 (p38 alpha) Km app 9.7 Z SPHK2 10 3.1 A ICK n/a 0.0 L SGKL (SGK3) Km app -4.6 Z
# LCK Km app 9.6 Z FGFR3 G697C n/a 3.1 L FGFR2 Km app 0.0 Z PI4KB (PI4K beta) Km app -4.7 A
# MAPK11 (p38 beta) Km app 9.5 Z RIPK2 n/a 3.1 L AKT2 (PKB beta) Km app 0.0 Z PRKCE (PKC epsilon) Km app -4.9 Z
# SRC Km app 9.5 Z PAK6 Km app 3.0 Z EPHB2 Km app -0.1 Z PHKG1 Km app -5.0 Z
# CHEK1 (CHK1) Km app 9.3 Z LYN B Km app 3.0 Z TGFBR2 n/a -0.1 L PDGFRA D842V Km app -5.0 Z
# CAMK2D (CaMKII delta) Km app 9.3 Z DAPK2 n/a 2.9 L TEK (Tie2) Km app -0.1 Z PRKG2 (PKG2) Km app -5.1 Z
# PLK1 Km app 9.2 Z EPHA4 Km app 2.9 Z AURKA (Aurora A) Km app -0.1 Z TYRO3 (RSE) Km app -5.1 Z
# RET Y791F Km app 9.2 Z PIK3CG (p110 gamma) Km app 2.9 A KIT D816H n/a -0.2 L TAOK2 (TAO1) Km app -5.1 Z
# FLT3 Km app 9.1 Z HIPK1 (Myak) Km app 2.8 Z KIT N822K n/a -0.2 L EPHB4 Km app -5.3 Z
# MAPK10 (JNK3) 100 9.0 Z ADRBK2 (GRK3) Km app 2.8 Z PRKACG (PRKAC gamma) n/a -0.2 L AURKC (Aurora C) Km app -5.4 Z
# CSNK2A2 (CK2 alpha 2) Km app 8.7 Z STK17B (DRAK2) n/a 2.7 L TEK (TIE2) Y1108F n/a -0.3 L JAK1 Km app -5.7 Z […]
# T1 sequence (P22607 23-806 G697C): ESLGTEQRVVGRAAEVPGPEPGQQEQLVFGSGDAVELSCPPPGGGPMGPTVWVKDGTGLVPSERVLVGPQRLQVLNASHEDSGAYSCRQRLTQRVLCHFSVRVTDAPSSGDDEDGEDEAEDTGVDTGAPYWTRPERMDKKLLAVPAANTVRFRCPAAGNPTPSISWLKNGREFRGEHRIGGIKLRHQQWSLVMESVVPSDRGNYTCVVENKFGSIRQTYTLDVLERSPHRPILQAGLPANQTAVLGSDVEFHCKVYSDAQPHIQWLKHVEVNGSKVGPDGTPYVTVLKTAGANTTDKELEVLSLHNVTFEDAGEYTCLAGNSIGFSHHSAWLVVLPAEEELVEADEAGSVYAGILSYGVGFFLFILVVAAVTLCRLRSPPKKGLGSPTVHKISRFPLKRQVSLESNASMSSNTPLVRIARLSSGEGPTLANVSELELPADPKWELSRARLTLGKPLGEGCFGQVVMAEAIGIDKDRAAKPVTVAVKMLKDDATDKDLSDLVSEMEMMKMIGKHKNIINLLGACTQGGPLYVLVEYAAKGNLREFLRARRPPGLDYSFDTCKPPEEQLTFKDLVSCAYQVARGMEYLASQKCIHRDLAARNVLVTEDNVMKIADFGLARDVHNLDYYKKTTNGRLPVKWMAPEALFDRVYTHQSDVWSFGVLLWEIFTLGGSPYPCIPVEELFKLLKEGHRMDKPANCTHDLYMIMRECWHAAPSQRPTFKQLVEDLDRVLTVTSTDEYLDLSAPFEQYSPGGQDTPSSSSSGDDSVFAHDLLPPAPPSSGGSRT
smiles,measurement,value
CN(C(=O)CN1CCOCC1)c1ccc2sc3c(-c4cccc5c(=O)cc(N6CC7CCC(C6)O7)oc45)cccc3c2c1 [NU5455],inhibition at 1 µM,3.1%
